According to patent publication US20050277663A1, “3-Aryl-3-hydroxy-and 3-aryl-3-oxopropionic acid esters as fungicides” (priority 2004, published 2005):

Legend:
Phytophthora infestans = assay: microbe, parasite or virus in culture; format: cell-based; details: for IC50: Phytophthora infestans, read-out: IC50 P. infestans
Stagnospora nodorum = assay: Microtiter plate fungicidal screening (agar, spore inoculation); format: cell-based; details: fungal growth after 3-5 days at 20° C., C.V. class in parentheses; for IC50: Parastagonospora nodorum, read-out: IC50 S. nodorum
Septoria tritici = assay: as above; format: cell-based; details: fungal growth after 3-5 days at 20° C., C.V. class in parentheses
U. maydis = assay: as above; format: cell-based, Ustilago maydis; details: Mycosarcoma maydis; fungal growth after 3-5 days at 20° C.; C.V. class in parentheses
[1] = test system: Alternaria solani on tomato plants; assay: Alternaria greenhouse study on tomato plants; details: for control of A. solani (in words): 75 ppm rate; for Average Lesion Size: 6 days after infection
Method: Tomato plants were inoculated with a conidial suspension (8,000 conidia/ml) of A. solani and maintained in a dew chamber for 24 hours. The plants were subsequently moved to the greenhouse for disease development.

Botrytis cinerea = assay: Microtiter plate fungicidal screening (agar, spore inoculation); format: cell-based; details: fungal growth after 3-5 days at 20° C., C.V. class in parentheses, read-out: IC50 B. cinerea
[2] = test system: Erysiphe graminis on barley plants; assay: Erysiphe greenhouse study on barley plants; details: for Average Lesion Number: 5 days after infection

In the case of `O=C(OCc1cccc(C(F)(F)F)c1)[C@H](c1ccccc1)[C@@H](O)c1cccnc1` [Compound 15, 3-(Trifluoromethyl)phenylmethyl syn-β-hydroxy-α-phenyl-3-pyridinepropanoate], the IC50 (Phytophthora infestans) is reported as greater than 25 µM, the “IC50 S. nodorum” value (Stagnospora nodorum) is reported as “A (d)” and the “IC50 S. tritici” value (Septoria tritici) is reported as “A (d)”. The IC50 (U. maydis) was greater than 25 µM.
In the case of `CO/C=C(/C(=O)OC)c1ccccc1Oc1cc(Oc2ccccc2C#N)ncn1` [Azoxystrobin, azoxystrobin], the “control of A. solani (in words)” value [1] is reported as “slightly less control”, the “Average Lesion Size” value ([1]; 75 ppm) is reported as “A (A = 0-10)” and the “control of A. solani” value ([1]; 300 ppm rate) is reported as roughly 100%. The “Average Lesion Size” value ([1]; 300 ppm) was “A (A = 0-10)”.
With `O=C(OCc1cccc(C(F)(F)F)c1)C(CSc1nccs1)C(O)c1cccnc1` (stereo not drawn) [Compound 5, 3-(Trifluoromethyl)phenylmethyl β-hydroxy-α-(2-thiazolylthiomethyl)-3-pyridinepropanoate] the IC50 (Botrytis cinerea) was greater than 25 µM, the IC50 (Phytophthora infestans) was greater than 25 µM and the IC50 (Stagnospora nodorum) was less than 5 µM. For the same molecule, the “IC50 S. tritici” value (Septoria tritici) was “A (d)” and the IC50 (U. maydis) was greater than 25 µM.
For `CCCC1COC(Cn2cncn2)(c2ccc(Cl)cc2Cl)O1` (centres unmarked) [Propiconazole, propiconazole], the “control of E. graminis” value ([2]; high (75 ppm) rate) was roughly 100%, the “Average Lesion Number” value ([2]; inoculated data set, 4.7 ppm) was “A (A = 0-50)” and the “Average Lesion Number” value ([2]; inoculated data set, 18.8 ppm) was “A (A = 0-50)”. The “Average Lesion Number” value ([2]; inoculated data set, 75 ppm) was “A (A = 0-50)”, the “control of E. graminis (in words)” value ([2]; lower rates (19 and 5 ppm)) was “excellent control” and the “Average Lesion Number” value ([2]; uninoculated data set, 5 ppm) was “A (A = 0-10)”. For the same molecule, the “Average Lesion Number” value ([2]; uninoculated data set, 19 ppm) was “A (A = 0-10)” and the “Average Lesion Number” value ([2]; uninoculated data set, 75 ppm) was “A (A = 0-10)”.
For `CC(C(=O)Oc1ccc(Cl)c(Cl)c1)C(O)c1cccnc1` (stereo not drawn) [Compound 29, 3,4-Dichlorophenyl β-hydroxy-α-methyl-3-pyridinepropanoate], the IC50 (Botrytis cinerea) was greater than 25 µM, the “IC50 P. infestans” value (Phytophthora infestans; fungal growth after 3-5 days at 20° C., C.V. class in parentheses) was “D (d)” and the IC50 (Stagnospora nodorum) was 16 to 25 µM. The “IC50 S. tritici” value (Septoria tritici) was “A (b)” and the IC50 (U. maydis) was 16 to 25 µM.
`O=C(OCc1cccc(C(F)(F)F)c1)C(c1ccccc1Cl)C(O)c1cccnc1` (stereo not drawn) [Compound 21, 3-(Trifluoromethyl)phenylmethyl β-hydroxy-α-2-chlorophenyl-3-pyridinepropanoate] was tested, and the IC50 (Botrytis cinerea) was greater than 25 µM, the IC50 (Phytophthora infestans) was greater than 25 µM and the “IC50 S. nodorum” value (Stagnospora nodorum) was “A (c)”. For the same molecule, the “IC50 S. tritici” value (Septoria tritici) was “A (c)”, the IC50 (U. maydis) was greater than 25 µM and the “activity against E. graminis (in words)” value ([2]; both rates (300 and 75 ppm), both uninoculated and inoculated tests) was “excellent activity”. The “Average Lesion Number” value ([2]; inoculated data set, 75 ppm) was “A (A = 0-50)”, the “Average Lesion Number” value ([2]; inoculated data set, 300 ppm) was “A (A = 0-50)” and the “Average Lesion Number” value ([2]; uninoculated data set, 75 ppm) was “A (A = 0-10)”. The “Average Lesion Number” value ([2]; uninoculated data set, 300 ppm) was “A (A = 0-10)”, the “control of A. solani (in words)” value [1] was “no control” and the “Average Lesion Size” value ([1]; 75 ppm) was “D (D = +30)”. The “Average Lesion Size” value ([1]; 300 ppm) was “C (C = 21-30)” and the “decrease in lesion counts” value ([1]; high rate (300 ppm), activity was not significant) was “roughly 50%”.
In the case of `O=C(OCc1cccc(C(F)(F)F)c1)C(Cc1ccco1)C(O)c1cccnc1` (stereo not drawn) [Compound 20, 3-(Trifluoromethyl)phenylmethyl β-hydroxy-α-2-furylmethyl-3-pyridinepropanoate], the IC50 (Botrytis cinerea) is reported as greater than 25 µM, the IC50 (Phytophthora infestans) is reported as greater than 25 µM and the “IC50 S. nodorum” value (Stagnospora nodorum) is reported as “A (b)”. The IC50 (Septoria tritici; Zymoseptoria tritici, read-out: IC50 S. tritici) was less than 5 µM and the IC50 (U. maydis) was greater than 25 µM.
In the case of `O=C(OCc1ccc(Cl)c(Cl)c1)C(CSc1nc2cccnc2s1)C(O)c1cccnc1` (stereo not drawn) [Compound 16, 3,4-Dichlorophenylmethyl β-hydroxy-α-{2-(thiazolo[5,4-b]pyridine)thiomethyl}-3-pyridinepropanoate], the IC50 (Phytophthora infestans) is reported as greater than 25 µM, the “IC50 S. nodorum” value (Stagnospora nodorum) is reported as “A (b)” and the “IC50 S. tritici” value (Septoria tritici) is reported as “A (c)”. The IC50 (U. maydis) was greater than 25 µM.
`N#Cc1c(Cl)c(Cl)c(Cl)c(C#N)c1Cl` [Chlorothalonil, chlorothalonil] was tested, and the “control of E. graminis (in words)” value ([2]; high rate) was “marginal level of control”, the “Average Lesion Number” value ([2]; inoculated data set, 1250 ppm) was “B (B = 51-100)” and the “Average Lesion Number” value ([2]; inoculated data set, 5000 ppm) was “D (D = +150)”. For the same molecule, the “Average Lesion Number” value ([2]; uninoculated data set, 1250 ppm) was “B (B = 11-20)”, the “Average Lesion Number” value ([2]; uninoculated data set, 5000 ppm) was “C (C = 21-30)” and the “Average Lesion Size” value ([1]; 1250 ppm) was “A (A = 0-10)”. The “Average Lesion Size” value ([1]; 5000 ppm) was “A (A = 0-10)”.
